US11976083B2, “Inhibitors of peptidylarginine deiminases” (Gilead Sciences, Inc., priority 2020, dated 2024)
pIC50: −log10 of the molar value.

Molecular target: T1, human PAD4 (Homo sapiens, UniProt Q9UM07)
T1 construct: human PAD4 (NM_012387), A2-P663, was PCR amplified; His-SUMO (N, cleaved yes); made in house; host or cells: E. coli BL21(DE3)
Assay: In vitro PAD4 BAEE biochemical assay
Details: BAEE substrate 3 mM, 5 nM PAD4, 2 mM calcium chloride; geometric mean of multiple experiments
How it was run: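 Recombinant PAD4 (5 nM final) with 2 mM CaCl2 was preincubated with compound for 30 min at 25 °C in MOPS pH 7.6 buffer with DTT, then reacted with 3 mM BAEE for 2 h at 25 °C. Released ammonia was detected fluorimetrically with o-phthalaldehyde/DTT; IC50 from four-parameter fit, geometric mean of experiments.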

T1 sequence (Q9UM07 2-663): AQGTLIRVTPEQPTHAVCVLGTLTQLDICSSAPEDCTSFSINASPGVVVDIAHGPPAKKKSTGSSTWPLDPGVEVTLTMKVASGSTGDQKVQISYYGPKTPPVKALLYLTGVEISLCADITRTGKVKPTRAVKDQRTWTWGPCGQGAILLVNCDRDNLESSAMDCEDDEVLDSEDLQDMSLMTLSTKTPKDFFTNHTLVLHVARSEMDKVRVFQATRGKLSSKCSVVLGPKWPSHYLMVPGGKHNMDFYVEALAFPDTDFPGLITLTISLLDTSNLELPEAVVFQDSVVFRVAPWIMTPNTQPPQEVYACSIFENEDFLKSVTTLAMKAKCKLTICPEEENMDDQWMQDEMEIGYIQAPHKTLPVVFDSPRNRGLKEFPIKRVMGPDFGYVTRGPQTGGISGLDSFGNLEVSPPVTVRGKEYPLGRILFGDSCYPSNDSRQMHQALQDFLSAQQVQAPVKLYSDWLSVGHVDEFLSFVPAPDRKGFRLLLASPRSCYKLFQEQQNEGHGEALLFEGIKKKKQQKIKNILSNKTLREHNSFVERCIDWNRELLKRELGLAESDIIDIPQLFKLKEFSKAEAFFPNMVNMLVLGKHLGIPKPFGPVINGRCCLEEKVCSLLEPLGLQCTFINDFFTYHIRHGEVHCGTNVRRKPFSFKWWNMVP

pIC50	Compound
7.10	COc1cc(C(=O)N2CC[C@@H](OC)[C@@H](N)C2)cc2nc(-c3cc4ccc5nc4n3CCCCC[C@@H]3C[C@H]3C(=O)N[C@@H]5C)n(C)c12 [Example 174, (2~{R},5~{R},7~{R})-14-[5-[(3~{S),4~{R})-3-amino-4-methoxy-piperidine-1-carbonyl]-7-methoxy-1-methyl-benzimidazol-2-yl]-2-methyl-3,13,19-triazatetracyclo[11.5.2.0^{5,7}.0^{16,20}] icosa-1(19),14,16(20),17-tetraen-4-one]
7.41	COc1cc(C(=O)N2CCC[C@@H](N)C2)cc2nc(-c3cc4ccc5nc4n3C[C@@H]3C[C@H]3CC[C@@H]3C[C@H]3C(=O)N[C@@H]5C)n(C)c12 [Example 168, (3~{R},5~{R},8~{R},10~{R},13~{R})-19-[5-[(3~{R})-3-aminopiperidine-1-carbonyl]-7-methoxy-1-methyl-benzimidazol-2-yl]-13-methyl-1,12,21-triazapentacyclo[12.5.2.0^{3,5}.0^{8,10}.0^ {17,20}]henicosa-14(21),15,17(20),18-tetraen-11-one]
7.89	C[C@H]1NC(=O)c2nc3ccccc3nc2CCCCCn2c(-c3nc4cc(C(=O)N5C[C@H](N)[C@@H]6CC[C@H]5C6)cc(F)c4n3C3CC3)cc3ccc1nc32 [Example 839, (2~{R})-21-[5-[(1~ {S},4~{R},5~{R})-4-amino-2-azabicyclo[3.2.1]octane-2-carbonyl]-1-cyclopropyl-7-fluoro-benzimidazol-2-yl]-2-methyl-3,6,13,20,26-pentazapentacyclo[18.5.2.0^ {5,14}.0^{7,12}.0^ {23,27}]heptacosa-1(26),5(14), 6,8,10,12,21,23(27),24-nonaen-4-one]
7.77	COc1cc(C(=O)N2C[C@H](N)[C@@H]3CC[C@H]2C3)cc2nc(-c3cc4ccc5nc4n3CCCCCc3nc(C(F)F)ccc3C(=O)N[C@@H]5C)c(C)n12 [Example 777, (2~{R})-17-[7-[(1~{S},4~{R},5~ {R})-4-amino-2-azabicyclo [3.2.1]octane-2-carbonyl]-5-methoxy-3-methyl-imidazo[1,2-a]pyridin-2-yl]-8-(difluoromethyl)-2-methyl-3,9,16,22-tetrazatetracyclo [14.5.2.0^{5,10).0^{19,23}] tricosa-1(22),5(10),6,8,17, 19(23),20-heptaen-4-one]
7.21	COc1cc(C(=O)N2C[C@H](N)[C@@H]3CC[C@H]2C3)cc2nc(-c3cc4ccc5nc4n3CC(F)(F)CCCCC3(CC3)C(=O)N[C@@H]5C)n(C)c12 [Example 475, (11~{R})-17-[5-[(1~{S},4~{R},5~{R})-4-amino-2-azabicyclo[3.2.1]octane-2-carbonyl]-7-methoxy-1-methyl-benzimidazol-2-yl]-3,3-difluoro-11-methyl-spiro[1,10,19-triazatricyclo[10.5.2.0^{15,18}]nonadeca-12(19),13,15(18),16-tetraene-8,1′-cyclopropane]-9-one]
7.64	COc1cc(C(=O)N2[C@H]3CC[C@@H]2[C@H](N)[C@H](OC)C3)cc2nc(-c3cc4ccc5nc4n3CC(F)(F)CCC[C@@H]3C[C@H]3C(=O)N[C@@H]5C)n(C)c12 [Example 726, (2~{R},5~{R},7~{R})-14-[5-[(1~{R},2~{S},3~{R}, 5~{S})-2-amino-3-methoxy-8-azabicyclo[3.2.1]octane-8-carbonyl]-7-methoxy-1-methyl-benzimidazol-2-yl]-11,11-difluoro-2-methyl-3,13,19-triazatetracyclo[11.5.2.0^ {5,7}.0^{16,20}] icosa-1(19),14,16(20), 17-tetraen-4-one]

Further lines, the compound ahead of its results:

Compound	pIC50
COc1cc(C(=O)N2C[C@H]3CC[C@@H]2[C@@H]3N)cc2nc(-c3cc4ccc5nc4n3CCCCCC[C@](C)(C(F)(F)F)C(=O)N[C@@H]5C)n(C)c12 [Example 724, (8~{S},11~{R})-17-[5-[(1~{R},4~{R},7~{R})-7-amino-2-azabicyclo[2.2.1]heptane-2-carbonyl]-7-methoxy-1-methyl-benzimidazol-2-yl]-8,11-dimethyl-8-(trifluoromethyl)-1,10,19-triazatricyclo [10.5.2.0^{15,18}]nonadeca-12(19),13,15(18),16-tetraen-9-one]	7.03
COc1cc(C(=O)N2C[C@@H]3C[C@@H]3[C@@H](N)C2)cc2nc(-c3cc4ccc5nc4n3CCCCCCC(C)(C)C(=O)N[C@@H]5C)n(C)c12 [Example 542, (11~{R})-17-[5-[(1~ {R},5~{R},6~{S})-5-amino-3-azabicyclo [4.1.0]heptane-3-carbonyl]-7-methoxy-1-methyl-benzimidazol-2-yl]-8,8,11-trimethyl-1,10,19-triazatricyclo [10.5.2.0^{15,18}]nonadeca-12(19),13,15(18), 16-tetraen-9-one]	6.32
COc1cc(C(=O)N2CCC[C@@H](N)C2)cc2nc(-c3cc4ccc5nc4n3C[C@H]3C[C@@H]3COCCC(=O)N[C@@H]5C)n(C)c12 [Example 149, (3~{S},5~{S},12~{R})-18-[5-[(3~{R})-3-aminopiperidine-1-carbonyl]-7-methoxy-1-methyl-benzimidazol-2-yl]-12-methyl-7-oxa-1,11,20-triazatetracyclo[11.5.2.0^{3,5}.0^{16,19}] icosa-13(20),14,16(19),17-tetraen-10-one]	7.34
COc1cc(C(=O)N2CCC[C@@H](N)C2)cc2nc(-c3cc4ccc5nc4n3C[C@@H]3C[C@H]3CCCC(C)C(=O)N[C@@H]5C)n(C)c12 (stereo partly drawn) [Example 272, (3~{R},5~{R},12~{R})-18-[5-[(3~{R})-3-aminopiperidine-1-carbonyl]-7-methoxy-1-methyl-benzimidazol-2-yl]-9,12-dimethyl-1,11,20-triazatetracyclo[11.5.2.0^{3,5}.0^{16,19}] icosa-13(20),14,16(19),17-tetraen-10-one]	7.16
COc1cc(C(=O)N2CCC[C@@H](N)C2)cc2nc(-c3cc4ccc5cc4n3CCCCCCC(C)(C)C(=O)N[C@@H]5C)n(C3CC3)c12 [Example 160, (11~{R})-17-[5-[(3~{R})-3-aminopiperidine-1-carbonyl]-1-cyclopropyl-7-methoxy-benzimidazol-2-yl]-8,8,11-trimethyl-1,10-diazatricyclo[10.5.2.0^{15,18}]nonadeca-12(19),13,15(18),16-tetraen-9-one]	7.28
C[C@H]1NC(=O)[C@@H]2C[C@H]2CCCC(F)(F)Cn2c(-c3nc4cc(C(=O)N[C@H]5CNCC[C@@H]5F)c(F)c(F)c4n3C)cc3ccc1nc32 [Example 560, 2-[(2~{R},5~{R},7~ {R})-11,11-difluoro-2-methyl-4-oxo-3,13,19-triazatetracyclo[11.5.2.0^ {5,7}.0^{16,20}]icosa-1(19), 14,16(20),17-tetraen-14-yl]-6,7-difluoro-~{N}-[(3~{S},4~{S})-4-fluoro-3-piperidyl]-1-methyl-benzimidazole-5-carboxamide]	7.28
COc1cc(C(=O)N2C[C@H](N)[C@@H]3CC[C@H]2C3)cc2nc(-c3cc4ccc5nc4n3CCCCC[C@H]3[C@H](C(=O)N[C@@H]5C)C3(F)F)c(C)n12 [Example 929, (2~{R},5~{R},7~{S})-14-[7-[(1~{S},4~{R},5~{R})-4-amino-2-azabicyclo[3.2.1]octane-2-carbonyl]-5-methoxy-3-methyl-imidazo[1,2-a]pyridin-2-yl]-6,6-difluoro-2-methyl-3,13,19-triazatetracyclo[11.5.2.0^ {5,7}.0^{16,20}]icosa-1(19), 14,16(20),17-tetraen-4-one]	7.74
COc1cc(C(=O)N2CCC[C@@H](N)C2)cc2nc(-c3cc4ccc5nc4n3CCCCCc3nccnc3C(=O)N[C@@H]5C)n(C)c12 [Example 627, (2~{R})-17-[5-[(3~{R})-3-aminopiperidine-1-carbonyl]-7-methoxy-1-methyl-benzimidazol-2-yl]-2-methyl-3,6,9,16,22-pentazatetracyclo [14.5.2.0^{5,10}.0^{19,23}] tricosa-1(22),5(10), 6,8,17,19(23),20-heptaen-4-one]	7.31
CO[C@@H]1CCN(C(=O)c2cc(Cl)c3c(c2)nc(-c2cc4ccc5nc4n2CCCCCc2nccnc2C(=O)N[C@@H]5C)n3C)C[C@@H]1N [Example 504, (2~{R})-17-[5-[(3~ {S},4~{R})-3-amino-4-methoxy-piperidine-1-carbonyl]-7-chloro-1-methyl-benzimidazol-2-yl]-2-methyl-3,6,9,16,22-pentazatetracyclo [14.5.2.0^{5,10}.0^{19, 23}]tricosa-1(22),5(10), 6,8,17,19(23),20-heptaen-4-one]	6.76
COc1cc(C(=O)N2[C@H]3CC[C@@H]2[C@H](N)C3)cc2nc(-c3cc4ccc5nc4n3CC(F)(F)CCCCCC(=O)N[C@@H]5C)n(C)c12 [Example 534, (11~{R})-17-[5-[(1~ {R},2~{R},4~{S})-2-amino-7-azabicyclo[2.2.1]heptane-7-carbonyl]-7-methoxy-1-methyl-benzimidazol-2-yl]-3,3-difluoro-11-methyl-1,10,19-triazatricyclo[10.5.2.0^ {15,18}]nonadeca-12(19),13,15(18),16-tetraen-9-one]	7.25
C[C@H]1NC(=O)[C@@H]2C[C@H]2CCCCCn2c(-c3nc4cc(C(=O)N[C@H]5CNCC[C@@H]5F)c(F)cc4n3CC3(F)CC3)cc3ccc1nc32 [Example 405, 6-fluoro-1-[(1-fluorocyclopropyl)methyl]-~{N}-[(3~{S},4~{S})-4-fluoro-3-piperidyl]-2-[(2~{R},5~{R},7~{R})-2-methyl-4-oxo-3,13,19-triazatetracyclo[11.5.2.0^{5,7}.0^{16,20}]icosa-1(19),14,16(20),17-tetraen-14-yl]benzimidazole-5-carboxamide]	7.57
COc1cc(C(=O)N2CC[C@@H]3CCN[C@@H]3C2)cc2nc(-c3cc4ccc5nc4n3CCCCCCC(C)(C)C(=O)N[C@@H]5C)n(C)c12 [Example 81, (11~{R})-17-[5-[(3~{a}~{S},7~{a}~{S})-1,2,3,3~{a},4,5,7,7~{a}-octahydropyrrolo[2,3-c]pyridine-6-carbonyl]-7-methoxy-1-methyl-benzimidazol-2-yl]-8,8,11-trimethyl-1,10,19-triazatricyclo[10.5.2.0^{15,18}]nonadeca-12(19),13,15(18),16-tetraen-9-one]	6.30
